From US20230272002A1, “PHOTOREDOX PROTEIN MODIFICATION” (THE ROSALIND FRANKLIN INSTITUTE, priority 2020, published 2023)
One block for each molecule: values may come before it.

Assays:
[1] = biological target: T1, KDM4A (Homo sapiens, UniProt O75164); assay: Zn ejection assay (TSQ Zn(II) fluorophore); assay type: biochemical; details: 20 μM compound, 2 μM KDM4A
T1 sequence (O75164 1-1064): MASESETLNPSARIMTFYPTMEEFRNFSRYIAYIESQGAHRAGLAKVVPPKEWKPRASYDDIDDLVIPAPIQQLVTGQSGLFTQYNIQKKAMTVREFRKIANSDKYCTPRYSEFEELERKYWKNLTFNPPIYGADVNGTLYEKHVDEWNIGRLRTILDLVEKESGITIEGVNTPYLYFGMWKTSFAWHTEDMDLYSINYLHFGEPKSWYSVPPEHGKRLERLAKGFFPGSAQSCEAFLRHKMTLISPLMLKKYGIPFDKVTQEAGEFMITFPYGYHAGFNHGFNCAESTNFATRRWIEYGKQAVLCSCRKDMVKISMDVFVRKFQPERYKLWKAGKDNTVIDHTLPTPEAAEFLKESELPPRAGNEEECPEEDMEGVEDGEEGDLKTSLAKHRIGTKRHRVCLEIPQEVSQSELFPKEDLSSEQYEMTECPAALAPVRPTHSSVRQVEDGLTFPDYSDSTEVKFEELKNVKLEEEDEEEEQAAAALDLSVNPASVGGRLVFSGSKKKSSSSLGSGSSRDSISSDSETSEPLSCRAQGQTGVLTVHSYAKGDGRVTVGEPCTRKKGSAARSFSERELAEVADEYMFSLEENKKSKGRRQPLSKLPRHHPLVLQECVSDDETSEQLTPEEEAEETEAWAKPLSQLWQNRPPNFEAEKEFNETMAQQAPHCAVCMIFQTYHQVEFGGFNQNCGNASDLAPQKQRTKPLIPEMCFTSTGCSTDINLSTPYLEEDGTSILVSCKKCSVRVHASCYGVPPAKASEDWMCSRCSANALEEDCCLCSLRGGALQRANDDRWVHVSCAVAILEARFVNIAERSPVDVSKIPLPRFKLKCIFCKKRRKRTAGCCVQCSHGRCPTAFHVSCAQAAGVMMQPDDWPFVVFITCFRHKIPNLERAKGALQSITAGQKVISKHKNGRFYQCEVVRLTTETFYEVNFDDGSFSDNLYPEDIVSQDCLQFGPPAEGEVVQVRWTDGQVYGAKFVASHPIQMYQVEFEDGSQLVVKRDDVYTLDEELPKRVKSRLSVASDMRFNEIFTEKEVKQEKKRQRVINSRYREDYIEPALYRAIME
Procedure: Zn ejection assay was performed using N-(6-nethoxy-8-quinolyl)-p-toluenesulfonamide (TSQ) (Enzo) Zn(II) fluorophore as described with minor modifications28,33. In brief, assays were performed in 384 well black μCLEAR® non-binding plates (Grenier) using a reaction volume of 100 μL at 37° C. on a BMG CLARIOstar (360ex/490em). The plate was shaken (5 s, 700 rpm) before each reading, taken every 22 s for 270 cycles. Reactions consisted of […], 25 μM Ebselen or 20 μM H3 K9Bhn/H3-wt/4-bromobutylboronic acid, and those with enzyme contained 2 μM KDM4A all with 1.1% (v/v) DMSO in 50 mM HEPES (pH 7.5). Compounds and TSQ were added to the plate before initiating the assay with addition of KDM4A using the CLARIOstar injector (FIG. 4d). An internal calibration curve of ZnCl2 (0-2 μM) in 50 mM HEPES (pH 7.5) was included in each experiment to quantitate the concentrations of Zn(II) ejected. Data were normalised by subtracting a no enzyme control for that compound at each time point. Mean±standard deviation (n=3 technical replicates) was plotted for each time point using GraphPad Prism 5.0, representative data from three biological replicates is shown.
The rate of Zn(II) ejection was calculated from the slope of linear regression plotted over the linear region of Zn(II) ejection (from 946-3982 s) plotted in GraphPad Prism 5.0. […]

[2] = Cyclic voltammetry; assay type: physicochemical
Procedure: Catechol and 4-bromobutylboronic acid were obtained from Sigma-Aldrich and used as received without further purification. All solutions were made up using ultrapure water of resistivity not less than 18.2 MQ cm (Millipore) at 25° C. and degassed thoroughly with nitrogen (99.998%, BOC Gases plc) before use. Phosphate buffered saline (PBS) solution (pH=6.0) consisting of 43.85 mM sodium phosphate monobasic and 6.15 mM potassium phosphate dibasic.
All voltammetric measurements were recorded using an Autolab PGSTAT30 computer controlled potentiostat (Metrohm, Utrecht, The Netherlands). Experiments were performed in a thermostatted (25.0+0.3° C.) Faraday cage using a three-electrode set-up. A glassy carbon macroelectrode (diameter 3.0 mm, CH Instrument) was used as the working electrode, a saturated calomel electrode (SCE) as the reference electrode (SCE, ALS distributed by BASi, Tokyo, Japan) and a graphite rod as the counter electrode. Prior to each voltammetric experiment, renewal of the working electrode surface was achieved by polishing with alumina slurries in the size sequence 1.0 m, 0.3 m and 0.05 m, (Buehler Ltd, USA) followed by sonication in water and drying with nitrogen.

[3] = biological target: T2, Sirt2 (Homo sapiens, UniProt Q8IXJ6); assay: Sirt2 deacylation of acylated histone H3-K18 (intact-protein LC-MS timecourse, 19F-NMR); assay type: biochemical; details: deacylation of γ-F2 labelled KAc side chain, protein 19F NMR
T2 construct: His tag (inferred from the HisTrap purification); made in house; host or cells: E. coli BL21(DE3)
T2 sequence (Q8IXJ6 1-389): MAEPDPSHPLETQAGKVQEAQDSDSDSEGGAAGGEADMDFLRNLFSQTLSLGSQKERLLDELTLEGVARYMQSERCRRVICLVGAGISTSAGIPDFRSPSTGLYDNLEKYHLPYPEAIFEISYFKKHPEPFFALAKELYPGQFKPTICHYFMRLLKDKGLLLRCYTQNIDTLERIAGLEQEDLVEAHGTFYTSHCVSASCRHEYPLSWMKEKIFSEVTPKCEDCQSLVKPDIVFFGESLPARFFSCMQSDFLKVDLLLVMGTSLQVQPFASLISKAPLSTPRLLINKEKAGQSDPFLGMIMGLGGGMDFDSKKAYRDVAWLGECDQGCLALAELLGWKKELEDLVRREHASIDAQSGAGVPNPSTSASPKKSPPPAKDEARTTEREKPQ
Excerpt: H3-KAc18 and H3-KBzl8 were generated using BACED reagents (FIG. 4A).
The pySOOF reagents were also used to generate corresponding H—F labeled side chain analogues such as K[γF2]Ac and K[γF2] sidechains 2 k and 2f, respectively. […] Other sidechain variations could similarly be distinguished at different sites in the same protein e.g. H3.1-K9→H3.1-KAc9→H3.1-Kme39 (sidechains 2f→2 k→2j=δF −99.0→−98.0→−99.2) or H3.1-M27 (sidechain 2×δF −74.8) or H3.1-E9 (sidechain 2u δF −103.3). In this way, the diverse scope of available further sidechains allows this approach to be explored in numerous additional directions such as e.g. monitoring heteroatom variation (e.g. N→O, ‘deaza-oxo’ variant KOAc, sidechain 2r for H3.1-K18→H3.1-KOAc18, sidechains 2 k→2r) or even precisely assaying sidechain Met oxidation state (H3.1-M27→H3.1-Mox27→H3.1-Mox27, sidechains 2x→2y→2z).
Due to the site-selectivity of the insertion of this label and its excellent sensitivity in ‘zero background’, not only could chemical shift of ^19F signal be ‘read’ but also its multiplicity through correlated simulation (FIG. 4B).

- Time-dependent release of Zn(II) from KDM4A observed [1]: not
- Zn(II)-ejection rate ([1]; 50 mM HEPES pH 7.5, 37° C., slope of linear region 946-3982 s): 0.805 ± 0.010 nM/min
- oxidation in the absence of catechol ([2]; absence of catechol): no oxidation was observed
- half potential Eox (irreversible oxidation event) ([2]; catechol-enhanced conditions (1:12), saturated calomel reference electrode): +0.93 V
Molecule: OB(O)CCCCBr [Example 1u-precursor, 4-bromobutylboronic acid]

- L/D selectivity preference [3]: > 14
- ΔΔG of L/D selectivity [3]: > 1.58 kcal/mol
B1: Sirt2: HDAC deacylation enzyme Sirt2 (protein, UniProt Q8IXJ6 2-389, looked up)
NAD-dependent protein …: AEPDPSHPLETQAGKVQEAQDSDSDSEGGAAGGEADMDFLRNLFSQTLSLGSQKERLLDELTLEGVARYMQSERCRRVICLVGAGISTSAGIPDFRSPSTGLYDNLEKYHLPYPEAIFEISYFKKHPEPFFALAKELYPGQFKPTICHYFMRLLKDKGLLLRCYTQNIDTLERIAGLEQEDLVEAHGTFYTSHCVSASCRHEYPLSWMKEKIFSEVTPKCEDCQSLVKPDIVFFGESLPARFFSCMQSDFLKVDLLLVMGTSLQVQPFASLISKAPLSTPRLLINKEKAGQSDPFLGMIMGLGGGMDFDSKKAYRDVAWLGECDQGCLALAELLGWKKELEDLVRREHASIDAQSGAGVPNPSTSASPKKSPPPAKDEARTTEREKPQ
